Data from patent US20260091026A1, “METHODS OF TREATING INFLAMMATORY DISEASES” (INTERLINE THERAPEUTICS, INC., priority 2023, published 2026).

What was measured:
[1] = system: THP1-Dual cells, NF-κB pathway (SEAP); assay: THP-1 Dual cell SEAP assay (L18-MDP stimulated); assay type: cell-based; details: Homo sapiens, 10 ng/mL L18-MDP, 20-24 h, SEAP readout, read-out: IFNγ THP1 IC50
Outline: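 IC50 values come from non-linear fits of % inhibition of SEAP, measured as QUANTI-Blue optical density (620-655 nm, 2 h) in media-blanked supernatants. These were taken from THP1-Dual cells treated with compound for 30 min before overnight exposure to 10 ng/mL L18-MDP final at 37 °C.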

RIPK2 (KD)/XIAP (BIR2) = molecular target: T1, RIPK2 (KD)/XIAP (BIR2) (Homo sapiens, UniProt O43353); assay: RIPK2-XIAP binding competition PPI assay (TR-FRET); details: for Emax: 50 nM of GSK583 = -100% activity, read-out: PPI Amax; for IC50: GST-RIPK2 / His-XIAP (BIR2)-avi, 120 min at 23° C.
T1 construct: made in house; host or cells: baculovirus-infected Sf9 cells
T1 sequence (O43353 1-310): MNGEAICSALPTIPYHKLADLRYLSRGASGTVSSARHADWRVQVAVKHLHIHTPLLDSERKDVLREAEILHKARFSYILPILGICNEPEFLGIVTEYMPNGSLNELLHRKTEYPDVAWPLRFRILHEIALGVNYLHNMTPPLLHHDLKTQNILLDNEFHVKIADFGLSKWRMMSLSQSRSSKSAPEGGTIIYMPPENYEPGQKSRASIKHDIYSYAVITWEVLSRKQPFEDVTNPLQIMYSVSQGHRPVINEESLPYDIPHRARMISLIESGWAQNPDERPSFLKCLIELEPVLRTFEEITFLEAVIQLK
Outline: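 After 2 h at 23 °C, complex formation was read as the 665/520 nm emission ratio (337 nm excitation), scaled between uninhibited reaction and 50 nM GSK583. The mix held 1 nM human RIPK2 kinase fragment-GST, 25 nM His-tagged XIAP BIR2 and Tb/XL665 antibodies in pH 7.5 Tris buffer containing vanadate and glycerophosphate.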

| Structure (SMILES) | IC50 [1] [nM] | Emax (RIPK2 (KD)/XIAP (BIR2)) [%] | IC50 (RIPK2 (KD)/XIAP (BIR2)) [nM] |
| --- | --- | --- | --- |
| CCn1nc(-c2cnc3cc(OCCO)c(S(=O)(=O)C(C)(C)C)cn23)cc1C(=O)NCc1ncc(C)s1 [Example 126, 3-(6-(tert-butylsulfonyl)-7-(2-hydroxyethoxy)imidazo[1,2-a]pyridin-3-yl)-1-ethyl-N-((5-methylthiazol-2-yl)methyl)-1H-pyrazole-5-carboxamide] | < 100 | ≥ 80 | < 10 |
| CCn1nc(-c2cnc3cc(OCCO)c(S(=O)(=O)C(C)(C)C)cn23)cc1C(=O)NCc1nccs1 [Example 127, 3-(6-(tert-butylsulfonyl)-7-(2-hydroxyethoxy)imidazo[1,2-a]pyridin-3-yl)-1-ethyl-N-(thiazol-2-ylmethyl)-1H-pyrazole-5-carboxamide] | < 100 | ≥ 80 | < 10 |
| CCn1nc(-c2cnc3cc(OCCO)c(S(=O)(=O)C(C)(C)C)cn23)cc1C(=O)NCc1ccsn1 [Example 128, 3-(6-(tert-butylsulfonyl)-7-(2-hydroxyethoxy)imidazo[1,2-a]pyridin-3-yl)-1-ethyl-N-(isothiazol-3-ylmethyl)-1H-pyrazole-5-carboxamide] | < 100 | ≥ 80 | < 10 |
| CCn1nc(-c2cnc3cc(OCCO)c(S(=O)(=O)C(C)(C)C)cn23)cc1C(=O)NCc1cc(C)sn1 [Example 129, 3-(6-(tert-butylsulfonyl)-7-(2-hydroxyethoxy)imidazo[1,2-a]pyridin-3-yl)-1-ethyl-N-((5-methylisothiazol-3-yl)methyl)-1H-pyrazole-5-carboxamide] | < 100 | ≥ 80 | < 10 |
| CCn1nc(-c2cnc3cc(OCCO)c(S(=O)(=O)C(C)(C)C)cn23)cc1C(=O)N[C@H](C)c1ncc(C)s1 [Example 130, (R)-3-(6-(tert-butylsulfonyl)-7-(2-hydroxyethoxy)imidazo[1,2-a]pyridin-3-yl)-1-ethyl-N-(1-(5-methylthiazol-2-yl)ethyl)-1H-pyrazole-5-carboxamide] | < 100 | ≥ 80 | < 10 |
| CCn1nc(-c2cnc3cc(OCCO)c(S(=O)(=O)C(C)(C)C)cn23)cc1C(=O)N[C@@H](C)c1ncc(C)s1 [Example 131, (S)-3-(6-(tert-butylsulfonyl)-7-(2-hydroxyethoxy)imidazo[1,2-a]pyridin-3-yl)-1-ethyl-N-(1-(5-methylthiazol-2-yl)ethyl)-1H-pyrazole-5-carboxamide] | 500 to 2500 | ≥ 80 | 10 to 100 |
| CCn1nc(-c2cnc3cc(OCCO)c(S(=O)(=O)C(C)(C)C)cn23)cc1C(=O)N[C@H](C)c1cc(C)sn1 [Example 132, (R)-3-(6-(tert-butylsulfonyl)-7-(2-hydroxyethoxy)imidazo[1,2-a]pyridin-3-yl)-1-ethyl-N-(1-(5-methylisothiazol-3-yl)ethyl)-1H-pyrazole-5-carboxamide] | < 100 | ≥ 80 | < 10 |
| CCn1nc(-c2cnc3cc(OCCO)c(S(=O)(=O)C(C)(C)C)cn23)cc1C(=O)N[C@@H](C)c1cc(C)sn1 [Example 133, (S)-3-(6-(tert-butylsulfonyl)-7-(2-hydroxyethoxy)imidazo[1,2-a]pyridin-3-yl)-1-ethyl-N-(1-(5-methylisothiazol-3-yl)ethyl)-1H-pyrazole-5-carboxamide] | 500 to 2500 | ≥ 80 | 100 to 1000 |
| CCn1nc(-c2cnc3cc(OCCO)c(S(=O)(=O)C(C)(C)C)cn23)cc1C(=O)N[C@H](C)c1cc(C)ccn1 [Example 134, (R)-3-(6-(tert-butylsulfonyl)-7-(2-hydroxyethoxy)imidazo[1,2-a]pyridin-3-yl)-1-ethyl-N-(1-(4-methylpyridin-2-yl)ethyl)-1H-pyrazole-5-carboxamide] | 100 to 500 | ≥ 80 | 10 to 100 |
| CCn1nc(-c2cnc3cc(OCCO)c(S(=O)(=O)C(C)(C)C)cn23)cc1C(=O)N[C@@H](C)c1cc(C)ccn1 [Example 135, (S)-3-(6-(tert-butylsulfonyl)-7-(2-hydroxyethoxy)imidazo[1,2-a]pyridin-3-yl)-1-ethyl-N-(1-(4-methylpyridin-2-yl)ethyl)-1H-pyrazole-5-carboxamide] | > 2500 | ≥ 80 | > 1000 |
| C[C@@H](NC(=O)c1cc(-c2cnc3cc(OCCO)c(S(=O)(=O)C(C)(C)C)cn23)nn1C1CC1)c1ncccn1 [Example 136, (R)-3-(6-(tert-butylsulfonyl)-7-(2-hydroxyethoxy)imidazo[1,2-a]pyridin-3-yl)-1-cyclopropyl-N-(1-(pyrimidin-2-yl)ethyl)-1H-pyrazole-5-carboxamide] | < 100 | ≥ 80 | < 10 |
| CC(C)n1nc(-c2cnc3cc(OCCO)c(S(=O)(=O)C(C)(C)C)cn23)cc1C(=O)N[C@H](C)c1ncccn1 [Example 137, (R)-3-(6-(tert-butylsulfonyl)-7-(2-hydroxyethoxy)imidazo[1,2-a]pyridin-3-yl)-1-isopropyl-N-(1-(pyrimidin-2-yl)ethyl)-1H-pyrazole-5-carboxamide] | < 100 | ≥ 80 | < 10 |
| COCCn1nc(-c2cnc3cc(OCCO)c(S(=O)(=O)C(C)(C)C)cn23)cc1C(=O)N[C@H](C)c1ncccc1F [Example 138, (R)-3-(6-(tert-butylsulfonyl)-7-(2-hydroxyethoxy)imidazo[1,2-a]pyridin-3-yl)-N-(1-(3-fluoropyridin-2-yl)ethyl)-1-(2-methoxyethyl)-1H-pyrazole-5-carboxamide] | 100 to 500 | ≥ 80 | 10 to 100 |
| C[C@@H](NC(=O)c1cc(-c2cnc3cc(OCCO)c(S(=O)(=O)C(C)(C)C)cn23)nn1C1COC1)c1ncccc1F [Example 139, (R)-3-(6-(tert-butylsulfonyl)-7-(2-hydroxyethoxy)imidazo[1,2-a]pyridin-3-yl)-N-(1-(3-fluoropyridin-2-yl)ethyl)-1-(oxetan-3-yl)-1H-pyrazole-5-carboxamide] | 100 to 500 | ≥ 80 | 10 to 100 |
| COc1cc2ncc(-c3cc(C(=O)N[C@H](C)c4ncccc4F)n(C4CN(C(=O)OC(C)(C)C)C4)n3)n2cc1S(=O)(=O)C(C)(C)C [Example 140, tert-butyl (R)-3-(3-(6-(tert-butylsulfonyl)-7-methoxyimidazo[1,2-a]pyridin-3-yl)-5-((1-(3-fluoropyridin-2-yl)ethyl)carbamoyl)-1H-pyrazol-1-yl)azetidine-1-carboxylate] | 500 to 2500 | ≥ 80 | 10 to 100 |
| COc1cc2ncc(-c3cc(C(=O)N[C@H](C)c4ncccc4F)n(C4CNC4)n3)n2cc1S(=O)(=O)C(C)(C)C [Example 141, (R)-1-(azetidin-3-yl)-3-(6-(tert-butylsulfonyl)-7-methoxyimidazo[1,2-a]pyridin-3-yl)-N-(1-(3-fluoropyridin-2-yl)ethyl)-1H-pyrazole-5-carboxamide] | > 2500 | ≥ 80 | 100 to 1000 |
| COc1cc2ncc(-c3cc(C(=O)N[C@H](C)c4ccccn4)n(CCO)n3)n2cc1S(=O)(=O)C(C)(C)C [Example 142, (R)-3-(6-(tert-butylsulfonyl)-7-methoxyimidazo[1,2-a]pyridin-3-yl)-1-(2-hydroxyethyl)-N-(1-(pyridin-2-yl)ethyl)-1H-pyrazole-5-carboxamide] | 500 to 2500 | ≥ 80 | 10 to 100 |
| COc1cc2ncc(-c3cc(C(=O)N[C@H](C)c4ncccc4F)n(CCO)n3)n2cc1S(=O)(=O)C(C)(C)C [Example 143, (R)-3-(6-(tert-butylsulfonyl)-7-methoxyimidazo[1,2-a]pyridin-3-yl)-N-(1-(3-fluoropyridin-2-yl)ethyl)-1-(2-hydroxyethyl)-1H-pyrazole-5-carboxamide] | 100 to 500 | ≥ 80 | 10 to 100 |
| COc1cc2ncc(-c3cc(C(=O)N[C@H](C)c4ccccn4)n(CCCO)n3)n2cc1S(=O)(=O)C(C)(C)C [Example 144, (R)-3-(6-(tert-butylsulfonyl)-7-methoxyimidazo[1,2-a]pyridin-3-yl)-1-(3-hydroxypropyl)-N-(1-(pyridin-2-yl)ethyl)-1H-pyrazole-5-carboxamide] | 100 to 500 | ≥ 80 | 10 to 100 |
| COc1cc2ncc(-c3cc(C(=O)N[C@H](C)c4ncccc4F)n(CCCO)n3)n2cc1S(=O)(=O)C(C)(C)C [Example 145, (R)-3-(6-(tert-butylsulfonyl)-7-methoxyimidazo[1,2-a]pyridin-3-yl)-N-(1-(3-fluoropyridin-2-yl)ethyl)-1-(3-hydroxypropyl)-1H-pyrazole-5-carboxamide] | < 100 | ≥ 80 | 10 to 100 |
| COc1cc2ncc(-c3cc(C(=O)N[C@H](C)c4ccccn4)[nH]n3)n2cc1S(=O)(=O)C(C)(C)C [Example 146, (R)-3-(6-(tert-butylsulfonyl)-7-methoxyimidazo[1,2-a]pyridin-3-yl)-N-(1-(pyridin-2-yl)ethyl)-1H-pyrazole-5-carboxamide] | 100 to 500 | ≥ 80 | 10 to 100 |
| COc1cc2ncc(-c3cc(C(=O)N[C@H](C)c4ncccc4F)n(C4CN(C)C4)n3)n2cc1S(=O)(=O)C(C)(C)C [Example 147, (R)-3-(6-(tert-butylsulfonyl)-7-methoxyimidazo[1,2-a]pyridin-3-yl)-N-(1-(3-fluoropyridin-2-yl)ethyl)-1-(1-methylazetidin-3-yl)-1H-pyrazole-5-carboxamide] | 500 to 2500 | ≥ 80 | 100 to 1000 |
